According to patent publication US20120100989A1, “3-Aryl-4-(2-thienylmethylene)isoxazol-5(4H)-ones as Fungicides” (Bayer CropScience AG, priority 2010, published 2012):

Experiment: log P by HPLC on reversed-phase columns (C 18), EEC directive 79/831 Annex V.A8
Format: physicochemical
Settings: for log P: pH 2.7; for chromatographic logP: reversed-phase C18 HPLC column, preparation examples, HPLC, acidic range pH 2.7, formic acid, read-out: log P (HCOOH)
Protocol: The log P values were measured according to EEC directive 79/831 Annex V.A8 by HPLC (High Performance Liquid Chromatography) on reversed-phase columns (C 18), using the method below:
The determination was carried out in the acidic range at pH 2.7 using the mobile phases 0.1% aqueous formic acid and acetonitrile; linear gradient from 10% acetonitrile to 95% acetonitrile.

log P | chromatographic logP | SMILES
3.06 | – | COc1ccc(F)cc1C1=NOC(=O)C1=Cc1cccs1 [U-31]
4.32 | – | Cc1c(C=C2C(=O)ON=C2c2cc(F)ccc2Cl)sc2ccccc12 [I-146]
3.27 | – | Cc1ccc(C=C2C(=O)ON=C2c2ccccc2)s1 [U-3]
3.18 | – | Cc1ccsc1C=C1C(=O)ON=C1c1ccc([N+](=O)[O-])cc1 [U-23]
2.68 | – | COc1ccc(C2=NOC(=O)C2=Cc2cccs2)c(OC)c1 [U-28]
4.18 | – | Cc1c(C=C2C(=O)ON=C2c2ccc(F)cc2)sc2ccccc12 [I-143]
3.48 | – | COc1cc(OC)cc(C2=NOC(=O)C2=Cc2ccc(C)s2)c1 [U-20]
2.97 | – | COc1cccc(C2=NOC(=O)C2=Cc2cccs2)c1OC [U-30]
3.35 | – | Cc1ccc(/C=C2\C(=O)ON=C2c2ccccc2)s1 [U-42]
3.01 | – | COc1ccc(C2=NOC(=O)C2=Cc2cccs2)cc1OC [U-19]
3.55 | – | Cc1ccsc1C=C1C(=O)ON=C1c1cc(F)ccc1Cl [I-130]
3.35 | – | O=C1ON=C(c2ccccc2[N+](=O)[O-])C1=Cc1ccc(Br)s1 [I-134]
3.88 | – | O=C1ON=C(c2cc(Br)ccc2Br)C1=Cc1cccs1 [I-122]
4.51 | – | Cc1ccc(C2=NOC(=O)C2=Cc2sc3ccccc3c2C)cc1 [I-142]
4.45 | – | O=C1ON=C(c2cc(Br)ccc2Cl)C1=Cc1ccc(Cl)s1 [I-138]
3.81 | – | Cc1ccc(C)c(C2=NOC(=O)C2=Cc2sccc2C)c1 [I-124]
2.69 | – | O=C1ON=C(c2ccccc2[N+](=O)[O-])C1=Cc1cccs1 [I-120]
4.09 | – | Cc1ccc(C2=NOC(=O)C2=Cc2cc(Br)cs2)cc1 [U-7]
4.06 | – | O=C1ON=C(c2cc(F)ccc2Cl)C1=Cc1ccc(Br)s1 [I-129]
3.28 | – | O=C1ON=C(c2cc(F)ccc2Cl)C1=Cc1cccs1 [I-127]

log P | chromatographic logP | SMILES
4.02 | – | Cc1ccc(C=C2C(=O)ON=C2c2cc(Br)ccc2Cl)s1 [I-131]
3.74 | – | O=C1ON=C(c2cc(Br)ccc2Cl)C1=Cc1cccs1 [I-128]
2.85 | – | Cc1ccsc1C=C1C(=O)ON=C1c1ccccc1[N+](=O)[O-] [I-135]
3.74 | – | O=C1ON=C(c2ccccc2OCc2ccccc2)C1=Cc1cccs1 [I-117]
2.79 | – | COc1cccc(OC)c1C1=NOC(=O)C1=Cc1cccs1 [U-22]
6.31 | – | COc1ccc(C2=NOC(=O)C2=Cc2ccc([N+](=O)[O-])s2)cc1 [U-17]
3.07 | – | O=C1ON=C(c2cc(F)ccc2F)C1=Cc1cccs1 [I-126]
3.25 | – | CCOc1ccccc1C1=NOC(=O)C1=Cc1cccs1 [I-119]
3.76 | – | COc1cccc(C2=NOC(=O)C2=Cc2cc(Br)cs2)c1 [U-14]
3.95 | – | O=C1ON=C(c2cc(F)ccc2Cl)C1=Cc1cc(Br)cs1 [I-137]
3.97 | – | Cc1ccsc1C=C1C(=O)ON=C1c1cc(Br)ccc1Cl [I-132]
3.27 | – | O=C1ON=C(c2ccccc2)/C1=C/c1ccc([N+](=O)[O-])s1 [U-41]
4.03 | – | CCOc1ccccc1C1=NOC(=O)C1=Cc1ccc(Br)s1 [I-118]
3.03 | – | O=C1ON=C(c2ccc([N+](=O)[O-])cc2)/C1=C/c1cccs1 [U-40]
3.84 | – | O=C1ON=C(c2cc(F)ccc2F)C1=Cc1ccc(Cl)s1 [I-139]
3.57 | – | Cc1ccc(C2=NOC(=O)C2=Cc2sccc2C)cc1 [U-8]
3.24 | – | COc1cccc(C2=NOC(=O)C2=Cc2sccc2C)c1 [U-13]
4.13 | – | Cc1c(C=C2C(=O)ON=C2c2ccccc2)sc2ccccc12 [I-145]
3.38 | – | COc1cccc(C2=NOC(=O)C2=Cc2ccc([N+](=O)[O-])s2)c1 [U-15]
4.31 | – | Cc1c(C=C2C(=O)ON=C2c2ccccc2Cl)sc2ccccc12 [I-140]

Further lines, the molecule ahead of its results:

SMILES | log P | chromatographic logP
Cc1ccc(C2=NOC(=O)C2=Cc2cccs2)cc1C [I-92] | 3.73 | –
Cc1ccc(C2=NOC(=O)C2=Cc2ccc(Cl)s2)cc1 [I-42] | 4.05 | –
O=C1ON=C(c2ccc(F)cc2)C1=Cc1ccc(Cl)s1 [I-41] | 3.72 | –
O=C1ON=C(c2cccc([N+](=O)[O-])c2)C1=Cc1cccs1 [I-24] | 2.94 | –
O=C1ON=C(c2ccccc2C(F)(F)F)C1=Cc1cccs1 [I-21] | 3.03 | –
CC(C)(C)c1ccc(C2=NOC(=O)C2=Cc2ccc([N+](=O)[O-])s2)cc1 [I-53] | 4.52 | –
CC(C)(C)c1ccc(C2=NOC(=O)C2=Cc2ccc(Br)s2)cc1 [I-93] | 5.13 | –
Cc1ccsc1C=C1C(=O)ON=C1c1ccc(C(C)(C)C)cc1 [I-28] | 4.58 | –
Cc1ccc(C=C2C(=O)ON=C2c2ccccc2OCc2ccccc2)s1 [I-115] | 3.98 | –
O=C1ON=C(c2ccccc2OCc2ccccc2)C1=Cc1cc(-c2ccccc2)cs1 [I-114] | 4.80 | –
O=C1ON=C(c2ccc(-c3ccccc3)cc2)C1=Cc1cccs1 [I-66] | 4.16 | –
Cc1ccsc1C=C1C(=O)ON=C1c1ccccc1OCc1ccccc1 [I-116] | 3.89 | –
O=C1ON=C(c2ccc(Cl)c(Cl)c2)C1=Cc1cccs1 [I-7] | 3.89 | –
O=C1ON=C(c2ccccc2Cl)C1=Cc1cc(Br)cs1 [I-11] | 3.92 | –
Cc1ccc(C2=NOC(=O)C2=Cc2sccc2C)c(C)c1 [I-97] | 3.85 | –
Cc1ccc(C=C2C(=O)ON=C2c2ccccc2Cl)s1 [I-19] | 3.44 | –
O=C1ON=C(c2cccc(Cl)c2Cl)C1=Cc1cccs1 [I-99] | 3.62 | –
O=C1ON=C(c2ccccc2)C1=Cc1cc(Br)c(Br)s1 [I-111] | 4.46 | –
Cc1cc(C)cc(C2=NOC(=O)C2=Cc2sccc2C)c1 [I-88] | 4.03 | –
O=C1ON=C(c2ccc(F)cc2)C1=Cc1cc(Br)c(Br)s1 [I-63] | 4.45 | –
Cc1ccc(C2=NOC(=O)C2=Cc2cccs2)c(C)c1 [I-90] | 3.60 | –

SMILES | log P | chromatographic logP
O=C1ON=C(c2cc(Cl)cc(Cl)c2)C1=Cc1cccs1 [I-34] | 4.02 | –
Cc1ccccc1C1=NOC(=O)C1=Cc1cccs1 [I-23] | 2.98 | –
O=C1ON=C(c2ccc(F)cc2)C1=Cc1cccs1 [I-2] | 3.01 | –
O=C1ON=C(c2cccc(Cl)c2)C1=Cc1cccs1 [I-3] | 3.40 | –
O=C1ON=C(c2ccc(F)cc2)C1=Cc1cc(-c2ccccc2)cs1 [I-67] | 4.27 | –
Cc1cc(C)cc(C2=NOC(=O)C2=Cc2cccs2)c1 [I-89] | 3.78 | –
COc1ccc(C2=NOC(=O)C2=Cc2sccc2Br)cc1 [I-39] | 3.65 | –
CCOc1ccccc1C1=NOC(=O)C1=Cc1cc(-c2ccccc2)cs1 [I-112] | 4.44 | –
O=C1ON=C(c2ccccc2)C1=Cc1cc(-c2ccccc2)cs1 [I-110] | 4.27 | –
COc1ccc(C2=NOC(=O)C2=Cc2ccc(Br)s2)cc1 [I-49] | 3.77 | –
Cc1ccc(C2=NOC(=O)C2=Cc2sccc2Br)cc1 [I-38] | 4.25 | –
O=C1ON=C(c2c(F)cccc2F)C1=Cc1cccs1 [I-59] | 2.97 | –
O=C1ON=C(c2ccc(Cl)cc2)C1=Cc1sccc1Br [I-61] | 4.23 | –
O=C1ON=C(c2ccccc2Cl)C1=Cc1cc(-c2ccccc2)cs1 [I-14] | 4.36 | –
O=C1ON=C(c2ccc(Cl)cc2)C1=Cc1cc(-c2ccccc2)cs1 [I-65] | 4.70 | –
O=C1ON=C(c2ccccc2Cl)C1=Cc1ccc(Cl)s1 [I-9] | 3.90 | –
Cc1cccc(C2=NOC(=O)C2=Cc2cccs2)c1 [I-80] | 3.36 | –
O=C1ON=C(c2cccc(F)c2)C1=Cc1ccc([N+](=O)[O-])s1 [I-101] | 3.41 | –
O=C1CC(c2ccc(Cl)cc2Cl)=NO1 [3-(2,4-dichlorophenyl)isoxazol-5(4H)-one] | – | 2.44
O=C1ON=C(c2ccc(Cl)cc2)C1=Cc1cc(Br)cs1 [I-31] | 4.19 | –
CC(C)(C)c1ccc(C2=NOC(=O)C2=Cc2ccc(Cl)s2)cc1 [I-40] | 5.08 | –

SMILES | log P | chromatographic logP
Cc1cccc(C2=NOC(=O)C2=Cc2ccc(Br)s2)c1 [I-84] | 4.14 | –
O=C1ON=C(c2ccccc2)C1=Cc1ccc(Br)s1 [I-1] | 3.71 | –
CC(C)(C)c1ccc(C2=NOC(=O)C2)cc1 [3-(4-tert-butylphenyl)isoxazol-5(4H)-one] | – | 3.1
Cc1ccsc1C=C1C(=O)ON=C1c1cccc(C(F)(F)F)c1 [I-91] | 3.82 | –
O=C1ON=C(c2ccccc2Cl)C1=Cc1ccc(-c2ccccc2)s1 [I-15] | 4.42 | –
O=C1ON=C(c2c(F)cccc2F)C1=Cc1cc(-c2ccccc2)cs1 [I-70] | 4.16 | –
Cc1cc(C)cc(C2=NOC(=O)C2=Cc2ccc(C)s2)c1 [I-87] | 4.08 | –
CCOc1ccc(C2=NOC(=O)C2=Cc2sccc2C)cc1 [I-82] | 3.61 | –
O=C1ON=C(c2ccc(-c3ccccc3)cc2)C1=Cc1ccc(Br)s1 [I-75] | 4.88 | –
CCOc1ccc(C2=NOC(=O)C2=Cc2ccc(Br)s2)cc1 [I-83] | 4.20 | –
COc1cccc(C2=NOC(=O)C2=Cc2ccc(Br)s2)c1 [I-68] | 3.79 | –
O=C1ON=C(c2ccc(F)cc2)C1=Cc1ccc(Br)s1 [I-47] | 3.78 | –
Cc1ccsc1C=C1C(=O)ON=C1c1ccccc1I [I-107] | 3.56 | –
COCc1ccsc1C=C1C(=O)ON=C1c1ccccc1Cl [I-20] | 3.20 | –
COc1cccc(C2=NOC(=O)C2=Cc2cc(-c3ccccc3)cs2)c1 [I-52] | 4.27 | –
CSc1ccsc1C=C1C(=O)ON=C1c1ccccc1Cl [I-16] | 3.59 | –
Cc1ccc(C=C2C(=O)ON=C2c2ccc(Cl)cc2)s1 [I-25] | 3.79 | –
COc1cccc(C2=NOC(=O)/C2=C\c2ccc(Cl)s2)c1 [I-37, 3-(3-methoxyphenyl)-4-(2-(5-chlorothienyl)methylene)isoxazol-5(4H)-one] | – | 3.74
O=C1ON=C(c2ccccc2I)C1=Cc1cccs1 [I-108] | 3.36 | –
